Data reported in US20210179578A1, “OX1 ANTAGONISTS” (Heptares Therapeutics Limited, priority 2017, published 2021).

These molecules were tested against T1, human OX1 receptor (Homo sapiens, UniProt O43613) (assay: [3H]-radioligand binding assay, OX1). Settings: [3H]-radioligand binding, human OX1 membranes; read-out: pKi average OX1 (converted).
T1 sequence (O43613 1-425): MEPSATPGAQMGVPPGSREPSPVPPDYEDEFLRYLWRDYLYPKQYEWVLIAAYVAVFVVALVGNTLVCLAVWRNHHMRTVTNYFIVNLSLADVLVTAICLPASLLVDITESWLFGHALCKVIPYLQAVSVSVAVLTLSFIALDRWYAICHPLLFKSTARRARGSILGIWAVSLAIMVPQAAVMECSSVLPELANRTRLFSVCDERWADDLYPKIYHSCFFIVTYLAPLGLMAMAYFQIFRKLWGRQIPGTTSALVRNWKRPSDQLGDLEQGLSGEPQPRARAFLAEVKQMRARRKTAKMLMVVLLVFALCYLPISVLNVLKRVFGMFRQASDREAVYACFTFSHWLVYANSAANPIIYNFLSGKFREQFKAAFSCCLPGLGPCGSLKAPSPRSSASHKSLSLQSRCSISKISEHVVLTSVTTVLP
Parameters: made in house; host or cells: SF21 insect cells (baculovirus; P0 virus made in SF9)
From the text: Cloning, Baculovirus generation, large-scale infection of SF21 cells and membrane preparation. Human OX1 or OX2 receptor were cloned into Invitrogen's (ThermoFisher Scientific, UK) Bac-to-Bac Baculovirus Expression System. P0 baculovirus was generated by transfecting SF9 cells with bacmid DNA using Cellfectin® II transfection reagent (ThermoFisher Scientific, UK, Catalog number 10362-100). Following P0 generation P1 virus was then generated ready for large scale infection and membrane preparation. SF21 cells were grown in expression medium ESF921 (Expression Systems, USA, catalog number 96-001-01) supplemented with 10% heat-inactivated FBS and 1% Pen/Strep and were infected at a cell density of 2.5×10^6 cells/mL and a multiplicity of infection of 1.0 for both human OX1R and OX2R. Incubation was carried out at over 48 h in a shaking incubator set at 27° C. The cell culture was then centrifuged at 2,500 rcf for 10 min at 4° C. The pellets were resuspended in cold PBS supplemented with Roche's Complete EDTA-free protease inhibitor cocktail tablets (Roche Applied Sciences, catalog number 05056489001), 1 mM PMSF and 1 mM EDTA. The resuspended cell paste was then centrifuged at 3,273 rcf for 12 min at 4° C. The supernatant was discarded and the pellet frozen at −80° C. The cell pellet from a 4 L culture was resuspended in buffer containing 50 mM HEPES pH 7.5, 150 mM NaCl, 8 Roche EDTA-Free protease inhibitor cocktail tablets and 1 mM PMSF. The suspension was left stirring at rt for 1 h and then homogenised for 90 s at 9,500 rpm using a VDI 25 (VWR, USA) homogeniser. The cells were then lysed using a Microfluidiser processor M-110L Pneumatic (Microfluidics, USA) at 60 PSI and membranes collected by ultracentrifugation at 204.7 k×g for 1 h. The supernatant was discarded and the pellet was resuspended and homogenised in 90 s at 9,500 rpm in 50 mL (25 mL for each 2 L culture) of buffer containing 50 mM Hepes pH 7.5, 150 mM NaCl, 3 Roche EDTA-free protease inhibitor cocktail tablets and 1 mM PMSF. The resulting membranes were then stored at −80° C.
[^3H]-radioligand binding assay. After thawing, membrane homogenates were resuspended in the binding buffer (8.5 mM HEPES, pH 7.4, 1.3 mM CaCl2, 1.2 mM MgSO4, 118 mM NaCl, 4.7 mM KCl, 4 mM NaHCO3, 1.2 mM KH2PO4, 11 mM glucose) to a final assay concentration of 6.4 μg (OX1) or 1.4 μg (OX2) protein per well. Saturation isotherms were determined by the addition of various concentrations (0-30 nM) of [^3H]-4-(2,6-difluoro-4-methoxybenzyl)-2-(5,6-dimethoxypyridin-3-yl)-2H-1,2,4-benzothiadiazin-3(4H)-one 1,1-dioxide (Christopher et al, MedChemComm., 2015, 6, 947-955) in a total reaction volume of 250 μL for 90 min at rt. At the end of the incubation, membranes were filtered onto a 96-well GF/B filter pre-incubated with 0.5% polyethylenimine, with a Tomtec cell harvester and washed 5 times with 0.5 mL distilled water. Non-specific binding (NSB) was measured in the presence of 3.33 μM [4-(5-chloro-1,3-benzoxazol-2-yl)-7-methyl-1,4-diazepan-1-yl][5-methyl-2-(2H-1,2,3-triazol-2-yl)phenyl]methanone (Wertz et al, Angew. Chem. Int. Ed., 2011, 50, 11511-11515). Radioactivity on the filter was counted (1 min) on a Microbeta radiometric plate counter (Perkin Elmer) after addition of 50 μL of scintillation fluid (LabLogic: Part #SG-BXX-14). […] IC50 values were derived from the inhibition curve and the equilibrium dissociation constant (Ki) values were calculated using the Cheng-Prusoff equation.

| Ki | SMILES |
| --- | --- |
| 3.98 nM | COc1ncc(C2CCc3c(F)cccc3N(Cc3c(F)cc(Br)cc3F)C2=O)cc1S(C)(=O)=O (racemic) [Example 19, 1-(4-bromo-2,6-difluorobenzyl)-6-fluoro-3-[6-methoxy-5-(methylsulfonyl)pyridin-3-yl]-1,3,4,5-tetrahydro-2H-1-benzazepin-2-one] |
| 0.398 nM | COc1ncc(C2CCc3c(F)cccc3N(Cc3c(F)cc(Br)cc3F)C2=O)cc1C(C)(F)F (single isomer, unassigned) [Example 12, 1-(4-bromo-2,6-difluorobenzyl)-3-[5-(1,1-difluoroethyl)-6-methoxypyridin-3-yl]-6-fluoro-1,3,4,5-tetrahydro-2H-1-benzazepin-2-one] |
| 0.794 nM | COc1ncc(C2CCc3c(F)cccc3N(Cc3cc(C#N)ccc3F)C2=O)cc1C(C)(F)F (single isomer, unassigned) [Example 13, 3-({3-[5-(1,1-difluoroethyl)-6-methoxypyridin-3-yl]-6-fluoro-2-oxo-2,3,4,5-tetrahydro-1H-1-benzazepin-1-yl}methyl)-4-fluorobenzonitrile] |
| 0.316 nM | COc1ncc(C2CCc3c(F)cccc3N(Cc3c(F)cc(Br)cc3F)C2=O)cc1S(C)(=O)=O (single isomer, unassigned) [Example 21, 1-(4-bromo-2,6-difluorobenzyl)-6-fluoro-3-[6-methoxy-5-(methylsulfonyl)pyridin-3-yl]-1,3,4,5-tetrahydro-2H-1-benzazepin-2-one] |
| 0.501 nM | COc1ncc(C2CCc3c(F)cccc3N(Cc3c(F)cc(Cl)cc3F)C2=O)cc1S(C)(=O)=O (single isomer, unassigned) [Example 22, 1-(4-chloro-2,6-difluorobenzyl)-6-fluoro-3-[6-methoxy-5-(methylsulfonyl)pyridin-3-yl]-1,3,4,5-tetrahydro-2H-1-benzazepin-2-one] |
| 2 nM | Cc1ncc(C2CCc3c(F)cccc3N(Cc3c(F)cc(Br)cc3F)C2=O)cc1C(C)(F)F (single isomer, unassigned) [Example 35, 1-(4-bromo-2,6-difluorobenzyl)-3-[5-(1,1-difluoroethyl)-6-methylpyridin-3-yl]-6-fluoro-1,3,4,5-tetrahydro-2H-1-benzazepin-2-one] |
| 0.631 nM | Cc1ncc(C2CCc3c(F)cccc3N(Cc3c(F)cc(Br)cc3F)C2=O)cc1C(C)(F)F (single isomer, unassigned) [Example 36, 1-(4-bromo-2,6-difluorobenzyl)-3-[5-(1,1-difluoroethyl)-6-methylpyridin-3-yl]-6-fluoro-1,3,4,5-tetrahydro-2H-1-benzazepin-2-one] |
| 10 nM | Cc1ncc(C2CCc3c(F)cccc3N(Cc3c(F)cc(Br)cc3F)C2=O)cc1S(C)(=O)=O (single isomer, unassigned) [Example 38, 1-(4-bromo-2,6-difluorobenzyl)-6-fluoro-3-[6-methyl-5-(methylsulfonyl)pyridin-3-yl]-1,3,4,5-tetrahydro-2H-1-benzazepin-2-one] |
| 1.26 nM | Cc1ncc(C2CCc3c(F)cccc3N(Cc3c(F)cc(Br)cc3F)C2=O)cc1S(C)(=O)=O (single isomer, unassigned) [Example 39, 1-(4-bromo-2,6-difluorobenzyl)-6-fluoro-3-[6-methyl-5-(methylsulfonyl)pyridin-3-yl]-1,3,4,5-tetrahydro-2H-1-benzazepin-2-one] |
| 2 nM | Cc1ccc(N2CCc3c(F)cccc3N(Cc3c(F)cc(Br)cc3F)C2=O)cc1C(C)(F)F [Example 1, 1-(4-bromo-2,6-difluorobenzyl)-3-[3-(1,1-difluoroethyl)-4-methylphenyl]-6-fluoro-1,3,4,5-tetrahydro-2H-1,3-benzodiazepin-2-one] |
| 0.631 nM | [2H]C([2H])([2H])Oc1ncc(N2CCc3c(F)cccc3N(Cc3c(F)cc(Br)cc3F)C2=O)cc1C(C)(F)F [Example 2, 1-(4-bromo-2,6-difluorobenzyl)-3-{5-(1,1-difluoroethyl)-6-[(^2H3)methyloxy]pyridin-3-yl}-6-fluoro-1,3,4,5-tetrahydro-2H-1,3-benzodiazepin-2-one] |
| 1.26 nM | COc1ncc(N2CCc3c(F)cccc3N(Cc3c(F)cc(Br)cc3F)C2=O)cc1C(C)(F)F [Example 3, 1-(4-bromo-2,6-difluorobenzyl)-3-[5-(1,1-difluoroethyl)-6-methoxypyridin-3-yl]-6-fluoro-1,3,4,5-tetrahydro-2H-1,3-benzodiazepin-2-one] |
| 0.794 nM | COc1ccc(CN2C(=O)N(c3cnc(OC)c(C(C)(F)F)c3)CCc3c(F)cccc32)c(F)c1 [Example 4, 3-[5-(1,1-difluoroethyl)-6-methoxypyridin-3-yl]-6-fluoro-1-(2-fluoro-4-methoxybenzyl)-1,3,4,5-tetrahydro-2H-1,3-benzodiazepin-2-one] |
| 0.316 nM | [2H]C([2H])([2H])OCc1cc(F)c(CN2C(=O)N(c3cnc(OC)c(C(C)(F)F)c3)CCc3c(F)cccc32)c(F)c1 [Example 5, 3-[5-(1,1-difluoroethyl)-6-methoxypyridin-3-yl]-1-(2,6-difluoro-4-{[(^2H3)methyloxy]methyl}benzyl)-6-fluoro-1,3,4,5-tetrahydro-2H-1,3-benzodiazepin-2-one] |
| 0.398 nM | [2H]C([2H])([2H])Oc1cc(F)c(CN2C(=O)N(c3cnc(OC)c(C(C)(F)F)c3)CCc3c(F)cccc32)c(F)c1 [Example 6, 3-[5-(1,1-difluoroethyl)-6-methoxypyridin-3-yl]-1-{2,6-difluoro-4-[(^2H3)methyloxy]benzyl}-6-fluoro-1,3,4,5-tetrahydro-2H-1,3-benzodiazepin-2-one] |
| 1 nM | COCc1cc(F)c(CN2C(=O)N(c3cnc(OC)c(C(C)(F)F)c3)CCc3c(F)cccc32)c(F)c1 [Example 7, 3-[5-(1,1-difluoroethyl)-6-methoxypyridin-3-yl]-1-[2,6-difluoro-4-(methoxymethyl)benzyl]-6-fluoro-1,3,4,5-tetrahydro-2H-1,3-benzodiazepin-2-one] |
| 0.398 nM | COc1cc(F)c(CN2C(=O)N(c3cnc(OC)c(C(C)(F)F)c3)CCc3c(F)cccc32)c(F)c1 [Example 8, 3-[5-(1,1-difluoroethyl)-6-methoxypyridin-3-yl]-1-(2,6-difluoro-4-methoxybenzyl)-6-fluoro-1,3,4,5-tetrahydro-2H-1,3-benzodiazepin-2-one] |
| 0.794 nM | COc1ncc(N2CCc3c(F)cccc3N(Cc3c(F)cc(Cl)cc3F)C2=O)cc1C(C)(F)F [Example 9, 1-(4-chloro-2,6-difluorobenzyl)-3-[5-(1,1-difluoroethyl)-6-methoxypyridin-3-yl]-6-fluoro-1,3,4,5-tetrahydro-2H-1,3-benzodiazepin-2-one] |
| 1.26 nM | COc1ncc(N2CCc3c(F)cccc3N(Cc3ccc(Br)cc3F)C2=O)cc1C(C)(F)F [Example 10, 1-(4-bromo-2-fluorobenzyl)-3-[5-(1,1-difluoroethyl)-6-methoxypyridin-3-yl]-6-fluoro-1,3,4,5-tetrahydro-2H-1,3-benzodiazepin-2-one] |
